According to patent US20230151021A1, “Compounds and Compositions for Treating Hematologic Malignancies” (priority 2020, published 2023):
Where two headings read alike, the source gives them in different places.

Columns and labels:
SU-DHL-4 cells [1] = assay: Cell viability assay (CellTiter-Glo luminescence); assay type: cell-based; conditions: Homo sapiens, SU-DHL-4, 48 h, read-out: viability of cells inhibited
Plasma stability [2] = assay: Plasma stability
Raji cells [3] = assay: cells; assay type: cell-based, human; conditions: for activity on viability of Raji cells (in words): 100 nM for 72 h
LCL1 cells = assay: Cell viability assay (CellTiter-Glo luminescence); assay type: cell-based; conditions: Homo sapiens; LCL1, 5000 cells, 72 hours; read-out: half-maximal inhibitory concentration (IC50)
Raji cells [4] = assay: Cell cycle assay (PI staining, flow cytometry); assay type: cell-based, human; conditions: 100 nM, 48 hours
Experimental: (§1) 5 million cells were harvested, fixed with 80% ethanol for 2 hours or overnight at −20° C., then washed with PBS and incubated with Propidium iodide (PI) staining buffer (0.5 mg/ml propidium iodide in PBS with 50 μg/ml RNase A) for 30 minutes at room temperature. The stained cells were resuspended in PBS and analyzed on a FACSCalibur system (Becton Dickinson, San Jose, Calif., USA) using FlowJo software (TreeStar, San Carlos, Calif., USA).

SU-DHL-4 cells [5] = assay: Cell cycle assay (PI staining, flow cytometry); assay type: cell-based, human; conditions: SU-DHL-4, 100 nM, 48 hours
Experimental: as §1

HL-60 cells = assay: Cell cycle assay (PI staining, flow cytometry); assay type: cell-based, human; conditions: HL-60, 100 nM, 48 hours
Experimental: as §1

K562 cells = assay: Cell cycle assay (PI staining, flow cytometry); assay type: cell-based, human; conditions: K562, 100 nM, 48 hours
Experimental: as §1

[6] = MetID profile in mouse liver microsomes; assay type: in vitro ADME; conditions: 60 min of incubation
Experimental: In order to determine if 26 induces liver microsomal metabolism changes, the MetID profile of 26 in mouse liver microsomes was investigated under the same conditions as for brusatol. […] However, 87% of 26 (area %) was detected after 60 min of incubation while five identified metabolites were all in relatively small percentages.

[7] = system: HL60, K562, MOLM14 and SU-DHL-4 cell lines; assay: IC50 of Brusatol in less and more sensitive cell lines; assay type: cell-based, human; conditions: 72 hours
Experimental: FIGS. 5A-5F: PI3K family of proteins is crucial for Brusatol-mediated inhibitory effects. FIG. 5A: IC50 assays of Brusatol were determined in the indicated cancer cells. All of the cells were treated for 72 hours. […] NS, not significant. […] Then cells were fixed and stained with PI. Flow cytometry assays were performed to determine cell cycle progression. The subG1 population in cells was labeled as the percentage. […] FIG. 5F: The described cells were incubated with Brusatol (0, 50 nM, 100 nM) for different periods (0, 12 hours, 24 hours).

AKT1, GSK3, and mTOR = assay: Western blot of PI3K/AKT regulated signaling proteins; assay type: cell-based, human; conditions: Raji and SU-DHL-4 cells; 0, 50 nM, 100 nM; 0, 12 hours, 24 hours
Experimental: Western blot analyses were performed as previously described. Briefly, total cell lysates were separated by SDS-PAGE gel and transferred to nitrocellulose membrane. The membranes were blocked with 5% non-fat milk, probed with specific antibodies, and visualized using the Odyssey scanner (LiCor Inc., Lincoln, Nebr.).

[8] = Stability in simulated intestinal fluid
[9] = Stability in simulated gastric fluid
Plasma stability [10] = assay: Plasma stability; remark: listed apart in the source
NOD/SCID mice = assay: In vivo toxicity test; conditions: 24 days; for survival: 4 mice per group
Experimental: […]; 4 mice per group) were intraperitoneally injected with a maximum dose of […] of Brusatol, #15 or #26 compound every other day (three times per week). The survival rate was recorded to monitor the tolerance of the compounds in these mice.
[…]. Six-week-old male NOD.CB17PrkdcSCID/J (NOD/SCID) mice (Jackson Labs, Bar Harbor, Me., USA; 4 mice per group) were intraperitoneally injected with a dose of 5 mg/kg of one of three compounds—brusatol, 15, or 26—every other day, three times per week. The mice were monitored and euthanized after 24 days of treatment. […]. […] […].

MOLM14 xenografts = assay: In vivo tumorigenic assay using xenografts; set-up: species or system NOD/SCID mice; conditions: 2 mg/kg intraperitoneally three times per week, two weeks
Experimental: Six-week-old male NOD.CB17-Prkdc^scid/J (NOD/SCID) mice (Jackson Labs, Bar Harbor, Me., USA) were used as the human-in-mouse xeno-transplantation model. MOLM14 cells (1×10^7 cells) were injected into the subcutaneous space on the left flank of the mice. Once xenografts reached a size of 100 mm^3, Brusatol and analogs (14, 15, 26, 31) at 2 mg/kg body weight or PBS were injected intraperitoneally three times per week. Body weight and tumor size were monitored before every injection. After treatment for two weeks, the mice were euthanized by CO2 inhalation and the tumors were carefully excised. The tumor volume (mm^3) was measured and calculated using the formula (a×b×b)/2 (a, the largest diameter of two measurements; b, the smallest diameter of two measurements).

[11] = system: 13 cell lines representing a range of hematologic malignancies; assay: Cell viability in panel of hematologic malignancy derived cell lines; conditions: 100 nM, 72 hours
Experimental: Cell viability was determined after 72 hours by detecting luminescence. ALL, acute lymphoblastic leukemia; BL, Burkitt's lymphoma; DLBCL, diffuse large B-cell lymphoma; MCL, mantle cell lymphoma; AML, acute myeloid leukemia; MM, multiple myeloma; LCLs, lymphoblastoid cell lines.
(§2) 5000 cells as indicated were cultured in 96-well plate with 100 μl of media. On the next day, Brusatol or associated analogs were added once to the cells without media change. After treatment, the cells were incubated with 100 μl buffer for 10 minutes at room temperature following the instructions of CellTiter-Glo kit (Promega, Madison, Wis.). Luminescence was detected using a multi-mode reader Cytation 5 (BioTek, Winooski, Vt.). Brusatol or its analogs are dissolved in 100% ethanol and diluted in 1×PBS for treatment. Two independent experiments done in duplicates were performed.

[12] = not given; remark: listed apart in the source
[13] = 60 min
[14] = 60 min; remark: listed apart in the source
[15] = system: MOLT-4, SU-DHL-6, SU-DHL-10, RPMI-8226, and LCL1; assay: Cell viability in five additional cell lines; conditions: MOLT-4, SU-DHL-6, SU-DHL-10, RPMI-8226, LCL1
Experimental: as §2
To investigate their inhibitory activities on the growth of EBV-associated lymphomas and other types of lymphomas, conjugates were first investigated for their effects on the viability of Raji cells, a Burkitt's lymphoma (BL) cell line, when treated at 100 nM for 72 h. […] These cell lines represent the cell models of a range of hematologic malignancies.

[16] = 5 mg/kg intraperitoneally every other day
[17] = 10 mg/kg intraperitoneally every other day

COC(=O)[C@@]12OC[C@]34C([C@@H](O)[C@@H]1O)[C@@]1(C)CC(=O)C(O)=C(C)[C@@H]1C[C@H]3OC(=O)[C@H](OC(=O)C=C(C)C)[C@@H]24 (stereo partly drawn) [Brusatol, methyl (1R,2S,3S,3aS,3a1R,4R,6aR,7aR,11aS)-1,2,9-trihydroxy-8,11a-dimethyl-4-((3-methylbut-2-enoyl)oxy)-5,10-dioxo-1,4,5,6a,7,7a,10,11,11a,11b-decahydro-2H-3,3a1-(epoxymethano)dibenzo[de,g]chromene-3(3aH)-carboxylate]
cytotoxicity at 0.1 µM (SU-DHL-4 cells [1]): > 80% | Plasma stability remaining % at 60 min, human (Plasma stability [2]): 91% | cytotoxicity at 0.1 µM (Raji cells [3]; Homo sapiens, 100 nM, 48 hours post-treatment, read-out: viability of cells inhibited): > 80% | IC50 (Raji cells [3]; Homo sapiens, 5000 cells, 72 hours, read-out: half-maximal inhibitory concentration (IC50)): 2 to 6 nM | IC50 (LCL1 cells): 2 to 6 nM | cells in the sub-G1 phase (Raji cells [4]): 68.4% | cells in the sub-G1 phase (SU-DHL-4 cells [5]): 67.9% | cells in the sub-G1 phase (HL-60 cells): 7.63% | cells in the sub-G1 phase (K562 cells): 3.19% | parent detected after incubation in mouse liver microsomes (area %) [6]: 40% | fold more sensitive (IC50), MOLM14 and SU-DHL-4 compared to HL60 and K562 [7]: about 10 fold | protein expression of AKT1, GSK3, and mTOR (in words) (AKT1, GSK3, and mTOR): significantly reduced | Stability in simulated intestinal fluid (% at 4 h) [8]: 100% | Stability in simulated gastric fluid (% at 4 h) [9]: 109% | Plasma stability remaining % at 60 min, rat (Plasma stability [10]): 100% | mice survived (of four) (NOD/SCID mice; [16]): three | survival (NOD/SCID mice; [16]): 75%

COC(=O)[C@@]12OC[C@]34C([C@@H](O)[C@@H]1O)[C@@]1(C)CC(=O)C(OC(=O)CNC(=O)OC(C)(C)C)=C(C)[C@@H]1C[C@H]3OC(=O)[C@H](OC(=O)C=C(C)C)[C@@H]24 (stereo partly drawn) [Compound 15, methyl (1R,2S,3S,3aS,3a1R,4R,6aR,7aR,11aS)-9-(((tert-butoxycarbonyl)glycyl)oxy)-1,2-dihydroxy-8,11a-dimethyl-4-((3-methylbut-2-enoyl)oxy)-5,10-dioxo-1,4,5,6a,7,7a,10,11,11a,11b-decahydro-2H-3,3a1-(epoxymethano)dibenzo[de,g]chromene-3(3aH)-carboxylate]
tumor size response (in words) (MOLM14 xenografts): strong and rapid inhibitory response | activity on viability of Raji cells (in words) (Raji cells [3]): moderate inhibition | Stability in simulated intestinal fluid (% at 4 h) [8]: 42% | Stability in simulated gastric fluid (% at 4 h) [9]: 25% | inhibition of cell viability (in words) [11]: significantly inhibit cell viability | mice survived (of four) (NOD/SCID mice; [16]): two | survival (NOD/SCID mice; [16]): 50% | toxicity in vivo (in words) (NOD/SCID mice; [17]): obviously lethal for the majority of mice within the first 4 days | survival (NOD/SCID mice; [17]): 0%

COC(=O)[C@@]12OC[C@]34C([C@@H](O)[C@@H]1O)[C@@]1(C)CC(=O)C(OC(=O)C[C@H](C)N)=C(C)[C@@H]1C[C@H]3OC(=O)[C@H](OC(=O)C=C(C)C)[C@@H]24 (stereo partly drawn) [Compound 26, methyl (1R,2S,3S,3aS,3a1R,4R,6aR,7aR,11aS)-9-(((S)-3-aminobutanoyl)oxy)-1,2-dihydroxy-8,11a-dimethyl-4-((3-methylbut-2-enoyl)oxy)-5,10-dioxo-1,4,5,6a,7,7a,10,11,11a,11b-decahydro-2H-3,3a1-(epoxymethano)dibenzo[de,g]chromene-3(3aH)-carboxylate]
Stability in simulated intestinal fluid (% at 4 h): 76% | Stability in simulated gastric fluid (% at 4 h) [12]: 97% | percentage of brusatol converted from 26, rat plasma [13]: 60% | parent detected after incubation in mouse liver microsomes (area %) [6]: 87% | mice survived (of four) (NOD/SCID mice; [16]): four | toxicity in vivo (in words) (NOD/SCID mice; [16]): did not show any obvious signs of toxicity | toxicity in vivo (in words) (NOD/SCID mice; [17]): did not show any obvious signs of toxicity | percentage of brusatol converted from 26, human plasma [14]: 47%

COC(=O)[C@@]12OC[C@]34C([C@@H](O)[C@@H]1O)[C@@]1(C)CC(=O)C(OCC(=O)NCCN)=C(C)[C@@H]1C[C@H]3OC(=O)[C@H](OC(=O)C=C(C)C)[C@@H]24 (stereo partly drawn) [Compound 40, methyl (1R,2S,3S,3aS,3a1R,4R,6aR,7aR,11aS)-9-(2-((2-aminoethyl)amino)-2-oxoethoxy)-1,2-dihydroxy-8,11a-dimethyl-4-((3-methylbut-2-enoyl)oxy)-5,10-dioxo-1,4,5,6a,7,7a,10,11,11a,11b-decahydro-2H-3,3a1-(epoxymethano)dibenzo[de,g]chromene-3(3aH)-carboxylate]
activity on viability of Raji cells (in words) (Raji cells [3]): moderate activity | activity on five additional cell lines (in words) [15]: moderate to good activities
